Reference: ChEMBL document CHEMBL1201862, “PubChem BioAssay data set” (2004)
Calls of active or inactive are those of the source.

Key:
Steroidogenic factor 1 = Steroidogenic factor 1 (Homo sapiens, UniProt Q13285); assay: Counterscreen for inverse agonists of the liver receptor homolog-1 (LRH-1; NR5A2): Luminescence-based cell-based high throughput dose response assay to identify inverse agonists of the Steroidogenic Factor 1 Nuclear Receptor (SF1; NR5A1).; type: functional
[1] = StAR promoter reporter inhibition counter-screen, dose response, counter-screen for LRH-1 inverse agonist project, cell-based, luminescence, luciferase reporter (AID 651969); type: functional
[2] = target: Nuclear receptor subfamily 5 group A member 2 (Homo sapiens, UniProt O00482); type: functional, cell-based;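 further: HEK293T cells transfected with LRH-1 and a StAR promoter luciferase reporter; potency for inhibitors that lower LRH-1 driven reporter light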
Protein Wnt-3a = Protein Wnt-3a (Mus musculus, UniProt P27467); assay: Wnt3a-driven reporter signaling inhibition, dose response, selectivity assay for Gli-SUFU antagonist project, Wnt-LIGHT cells, luminescence (AID 651570); type: functional; conditions: read-out: IC50_Mean;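 further: Wnt-LIGHT reporter cells stimulated with conditioned medium from Wnt3a-producing cells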
[3] = control 3'UTR Renilla luciferase suppression, dose response, counter-screen for Shn3 inhibitor project, cell-based, Clone20-Shn3RL, cherry-picked (AID 624133); type: functional
INS1 = assay: beta cell apoptosis inhibitors, cytokine rescue, dose response, luminescence, retest (AID 449756); type: functional, cell-based; conditions: Rattus norvegicus;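 further: cell death triggered by IL-1 beta plus TNF-alpha plus IFN-gamma mixture; protective hits raise ATP signal compared with cytokine alone wells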
[4] = Shn3 3'UTR reporter inhibitors, dose response, cell-based, Clone20 osteoblasts, firefly luciferase, cherry-picked (AID 624132); type: functional;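 further: firefly luciferase luminescence from reporter carrying the Shn3 3'UTR in osteoblasts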
[5] = insulin promoter down-regulators in MIN6 cells, imaging, high-content screening, mouse beta cells (AID 1628); type: functional
[6] = cytotoxicity in MIN6 insulinoma cells, dose response, cytotoxicity control, cell-based, mouse insulinoma (AID 2122); type: functional;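 further: confirmatory high-throughput counterscreen run to flag cytotoxic compounds; mouse MIN-6 beta cells carrying an insulin promoter eGFP reporter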
[7] = HepG2 cell cytotoxicity, dose response, cytotoxicity control for Shn3 inhibitor project, CellTiter-Glo, cherry-picked (AID 624134); type: functional, cell-based
[8] = target: T1, Microphthalmia-associated transcription factor (Homo sapiens, UniProt O75030); assay: TRPM1 promoter luciferase signal decrease, dose response, MITF inhibitor project, cell-based, SK-MEL-5, cherry-picked, set 3 (AID 493073); type: functional
T1 sequence (O75030 whole entry): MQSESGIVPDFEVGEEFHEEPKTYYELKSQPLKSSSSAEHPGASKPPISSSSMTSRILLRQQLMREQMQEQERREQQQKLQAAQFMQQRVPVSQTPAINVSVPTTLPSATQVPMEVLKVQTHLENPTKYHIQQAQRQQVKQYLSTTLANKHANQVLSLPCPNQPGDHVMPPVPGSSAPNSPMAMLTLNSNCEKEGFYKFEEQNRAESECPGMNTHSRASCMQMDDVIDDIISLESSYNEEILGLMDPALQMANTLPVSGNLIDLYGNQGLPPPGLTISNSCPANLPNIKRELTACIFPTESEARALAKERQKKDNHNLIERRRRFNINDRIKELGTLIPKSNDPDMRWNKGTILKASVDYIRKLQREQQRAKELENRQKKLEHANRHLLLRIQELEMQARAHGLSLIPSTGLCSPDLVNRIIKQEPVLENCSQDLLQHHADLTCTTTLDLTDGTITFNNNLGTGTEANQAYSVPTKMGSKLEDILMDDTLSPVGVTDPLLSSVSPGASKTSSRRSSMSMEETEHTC

Vero [9] = assay: cells; type: functional; conditions: Chlorocebus sabaeus
HEK293 [10] = assay: cells; conditions: Homo sapiens
Vero [11] = assay: cells; type: functional, cell-based; conditions: Chlorocebus sabaeus
[12] = Luminescence Cell-Based Dose Retest to Confirm Inhibitors of Cancer Stem Cells. [Related pubchem assays (depositor defined):AID2717, AID2721]; type: functional; conditions: Homo sapiens
A-375 = assay: MITF: Counter assay: A375 proliferation Measured in Cell-Based System Using Plate Reader - 2084-03_Inhibitor_Dose_DryPowder_Activity. [Related pubchem assays (depositor defined):AID488944]; type: functional; conditions: Homo sapiens
HEK293 [13] = assay: cells; conditions: Homo sapiens; remark: listed apart in the source
Genome polyprotein = Genome polyprotein (dengue virus type 2, UniProt P29990); assay: Dengue-2 NS5 methyltransferase inhibitors, primary screen, biochemical, confirmation dose response (AID 588689); type: functional
[14] = target: T2, Mannose-6-phosphate isomerase (Homo sapiens, UniProt P34949); assay: human PMI inhibitors, high substrate, primary screen, biochemical, fluorescence intensity, high mannose 6-phosphate (AID 1220)
T2 sequence (P34949 whole entry): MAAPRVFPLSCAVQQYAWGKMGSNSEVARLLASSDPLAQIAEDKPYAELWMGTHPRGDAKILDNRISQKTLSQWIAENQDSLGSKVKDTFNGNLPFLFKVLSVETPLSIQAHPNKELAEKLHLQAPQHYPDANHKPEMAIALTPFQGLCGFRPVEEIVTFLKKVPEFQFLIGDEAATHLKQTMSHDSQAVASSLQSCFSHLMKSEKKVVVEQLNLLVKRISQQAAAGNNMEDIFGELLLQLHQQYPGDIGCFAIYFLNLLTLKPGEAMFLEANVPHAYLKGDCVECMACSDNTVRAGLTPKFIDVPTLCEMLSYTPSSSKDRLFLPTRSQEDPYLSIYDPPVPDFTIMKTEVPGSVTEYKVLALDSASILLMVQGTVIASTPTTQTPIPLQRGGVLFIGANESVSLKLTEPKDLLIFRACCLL

[15] = target: T3, Apoptotic protease-activating factor 1 (Homo sapiens, UniProt O14727); type: functional
T3 sequence (O14727 whole entry): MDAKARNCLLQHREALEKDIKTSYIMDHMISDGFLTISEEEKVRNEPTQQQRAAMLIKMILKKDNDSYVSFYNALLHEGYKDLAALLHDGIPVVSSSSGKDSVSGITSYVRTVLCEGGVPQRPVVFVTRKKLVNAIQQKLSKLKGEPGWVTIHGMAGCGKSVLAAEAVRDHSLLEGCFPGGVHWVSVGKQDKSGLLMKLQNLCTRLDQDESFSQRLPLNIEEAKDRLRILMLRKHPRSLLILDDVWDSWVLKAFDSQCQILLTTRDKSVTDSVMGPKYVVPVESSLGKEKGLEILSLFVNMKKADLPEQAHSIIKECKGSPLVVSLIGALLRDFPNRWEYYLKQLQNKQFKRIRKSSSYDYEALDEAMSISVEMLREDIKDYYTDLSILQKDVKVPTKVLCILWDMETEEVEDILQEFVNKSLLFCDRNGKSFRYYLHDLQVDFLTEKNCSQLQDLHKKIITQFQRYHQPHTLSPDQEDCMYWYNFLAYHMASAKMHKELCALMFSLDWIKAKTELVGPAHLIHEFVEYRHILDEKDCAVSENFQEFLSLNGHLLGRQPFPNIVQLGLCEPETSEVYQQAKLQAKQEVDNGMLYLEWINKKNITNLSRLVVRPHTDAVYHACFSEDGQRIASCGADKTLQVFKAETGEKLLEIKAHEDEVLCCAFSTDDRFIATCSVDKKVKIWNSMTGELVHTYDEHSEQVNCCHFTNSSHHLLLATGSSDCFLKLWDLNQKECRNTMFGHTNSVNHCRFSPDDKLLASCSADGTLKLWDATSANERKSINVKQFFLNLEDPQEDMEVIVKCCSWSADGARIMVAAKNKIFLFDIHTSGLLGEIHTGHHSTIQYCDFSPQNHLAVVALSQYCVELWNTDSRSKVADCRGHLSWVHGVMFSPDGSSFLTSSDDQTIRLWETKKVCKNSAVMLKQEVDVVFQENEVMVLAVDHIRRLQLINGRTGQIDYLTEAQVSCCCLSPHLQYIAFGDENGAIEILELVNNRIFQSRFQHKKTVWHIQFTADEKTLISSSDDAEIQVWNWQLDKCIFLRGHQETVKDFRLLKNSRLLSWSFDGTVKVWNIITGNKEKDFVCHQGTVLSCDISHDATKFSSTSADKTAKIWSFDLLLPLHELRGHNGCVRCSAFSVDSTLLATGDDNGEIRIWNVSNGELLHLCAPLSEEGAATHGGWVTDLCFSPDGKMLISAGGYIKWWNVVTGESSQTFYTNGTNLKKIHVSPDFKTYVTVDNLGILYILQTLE

Nonstructural protein 1 = Nonstructural protein 1 (Influenza A virus, UniProt Q194T2); type: functional, Influenza A virus (A/California/07/2009(H1N1))
Vero [16] = assay: Vero cell cytotoxicity, cytotoxicity control for flavivirus capping enzyme inhibitors (AID 588742); type: functional; conditions: Chlorocebus sabaeus
[17] = target: Glucose-6-phosphate 1-dehydrogenase (Homo sapiens, UniProt P11413); assay: human G6PD enzyme inhibitors, dose response, selectivity assay for P. falciparum G6PD inhibitor project, biochemical, fluorescence (AID 504792); type: functional
[18] = target: Induced myeloid leukemia cell differentiation protein Mcl-1 (Homo sapiens, UniProt Q07820); type: functional
[19] = target: Eukaryotic translation initiation factor 4E (Mus musculus, UniProt P63073); assay: eIF4E–eIF4G protein interaction inhibitors, dose response, biochemical, TR-FRET (AID 855); type: functional;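 further: potency for disrupting eIF4E binding to eIF4GI seen as loss of FRET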
Sequence of Eukaryotic translation initiation factor 4E (P63073 whole entry): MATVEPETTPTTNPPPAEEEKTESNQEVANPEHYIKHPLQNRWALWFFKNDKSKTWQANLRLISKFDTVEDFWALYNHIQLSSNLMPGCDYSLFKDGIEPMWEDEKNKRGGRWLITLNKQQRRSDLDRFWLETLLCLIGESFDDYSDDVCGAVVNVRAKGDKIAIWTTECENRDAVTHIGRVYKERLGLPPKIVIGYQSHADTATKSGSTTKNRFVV

Sequence of Protein Wnt-3a (P27467 whole entry): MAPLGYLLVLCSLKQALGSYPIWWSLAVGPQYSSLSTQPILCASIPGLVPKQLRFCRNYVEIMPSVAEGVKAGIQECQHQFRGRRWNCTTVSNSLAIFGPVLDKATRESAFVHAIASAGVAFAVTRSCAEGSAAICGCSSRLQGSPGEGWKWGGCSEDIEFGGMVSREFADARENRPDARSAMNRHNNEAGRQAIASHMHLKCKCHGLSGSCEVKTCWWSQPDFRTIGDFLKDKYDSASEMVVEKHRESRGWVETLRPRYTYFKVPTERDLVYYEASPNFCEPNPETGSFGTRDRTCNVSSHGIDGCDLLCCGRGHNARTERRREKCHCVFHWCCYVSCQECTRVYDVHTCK
Sequence of Genome polyprotein (P29990 2492-3391 limits assumed): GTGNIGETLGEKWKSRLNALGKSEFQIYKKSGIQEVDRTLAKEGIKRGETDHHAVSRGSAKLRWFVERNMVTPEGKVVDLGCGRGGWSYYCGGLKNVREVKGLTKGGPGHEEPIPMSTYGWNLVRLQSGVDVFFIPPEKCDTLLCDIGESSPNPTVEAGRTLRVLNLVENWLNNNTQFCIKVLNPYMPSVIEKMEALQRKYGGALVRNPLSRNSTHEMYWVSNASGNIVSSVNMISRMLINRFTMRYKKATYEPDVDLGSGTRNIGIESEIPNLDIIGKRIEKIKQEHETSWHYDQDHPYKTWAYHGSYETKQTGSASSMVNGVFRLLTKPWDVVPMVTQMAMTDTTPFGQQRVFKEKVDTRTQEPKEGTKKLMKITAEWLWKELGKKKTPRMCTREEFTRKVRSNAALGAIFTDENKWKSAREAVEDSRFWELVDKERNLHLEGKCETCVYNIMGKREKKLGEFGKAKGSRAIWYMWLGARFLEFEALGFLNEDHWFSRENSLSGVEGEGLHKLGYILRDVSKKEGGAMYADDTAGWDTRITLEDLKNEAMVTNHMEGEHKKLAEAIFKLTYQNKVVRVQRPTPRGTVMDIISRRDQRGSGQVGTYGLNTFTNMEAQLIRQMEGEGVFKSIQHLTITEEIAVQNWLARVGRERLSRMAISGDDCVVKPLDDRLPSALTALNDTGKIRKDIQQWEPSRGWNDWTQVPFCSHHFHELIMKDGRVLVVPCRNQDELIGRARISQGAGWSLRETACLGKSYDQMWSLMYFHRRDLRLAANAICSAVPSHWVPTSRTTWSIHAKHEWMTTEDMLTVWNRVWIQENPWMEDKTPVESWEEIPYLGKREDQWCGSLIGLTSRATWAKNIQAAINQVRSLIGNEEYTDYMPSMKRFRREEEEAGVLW
Sequence of Glucose-6-phosphate 1-dehydrogenase (P11413 whole entry): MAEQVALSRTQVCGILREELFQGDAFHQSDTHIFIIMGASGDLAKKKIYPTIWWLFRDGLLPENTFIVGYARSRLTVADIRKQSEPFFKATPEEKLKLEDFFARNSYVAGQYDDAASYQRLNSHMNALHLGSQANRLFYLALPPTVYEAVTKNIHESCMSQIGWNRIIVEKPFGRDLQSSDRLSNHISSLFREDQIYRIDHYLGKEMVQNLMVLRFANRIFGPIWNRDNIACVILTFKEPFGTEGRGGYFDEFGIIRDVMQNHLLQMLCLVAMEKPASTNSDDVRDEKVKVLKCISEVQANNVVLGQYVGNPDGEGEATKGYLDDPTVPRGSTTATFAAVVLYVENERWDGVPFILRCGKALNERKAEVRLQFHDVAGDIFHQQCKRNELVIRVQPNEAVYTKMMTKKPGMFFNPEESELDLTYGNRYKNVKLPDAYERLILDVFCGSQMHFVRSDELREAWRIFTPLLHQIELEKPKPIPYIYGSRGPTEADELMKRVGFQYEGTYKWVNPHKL
Sequence of Nonstructural protein 1 (Q194T2 whole entry): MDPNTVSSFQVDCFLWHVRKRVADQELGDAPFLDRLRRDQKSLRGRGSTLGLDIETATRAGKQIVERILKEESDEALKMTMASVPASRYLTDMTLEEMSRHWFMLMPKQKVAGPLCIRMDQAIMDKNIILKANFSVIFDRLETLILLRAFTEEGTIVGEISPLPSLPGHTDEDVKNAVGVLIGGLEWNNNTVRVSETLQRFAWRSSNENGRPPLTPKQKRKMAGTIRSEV
Sequence of Induced myeloid leukemia cell differentiation protein Mcl-1 (Q07820 whole entry): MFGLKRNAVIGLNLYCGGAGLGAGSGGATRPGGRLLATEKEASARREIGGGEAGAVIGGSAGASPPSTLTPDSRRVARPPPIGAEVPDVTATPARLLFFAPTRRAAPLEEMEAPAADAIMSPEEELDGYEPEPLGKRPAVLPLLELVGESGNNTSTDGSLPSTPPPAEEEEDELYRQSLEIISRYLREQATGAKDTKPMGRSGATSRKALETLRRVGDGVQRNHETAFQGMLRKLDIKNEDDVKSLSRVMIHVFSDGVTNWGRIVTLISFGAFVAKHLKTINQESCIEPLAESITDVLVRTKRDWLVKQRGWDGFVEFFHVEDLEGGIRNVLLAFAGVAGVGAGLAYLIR
Sequence of Nuclear receptor subfamily 5 group A member 2 (O00482 whole entry): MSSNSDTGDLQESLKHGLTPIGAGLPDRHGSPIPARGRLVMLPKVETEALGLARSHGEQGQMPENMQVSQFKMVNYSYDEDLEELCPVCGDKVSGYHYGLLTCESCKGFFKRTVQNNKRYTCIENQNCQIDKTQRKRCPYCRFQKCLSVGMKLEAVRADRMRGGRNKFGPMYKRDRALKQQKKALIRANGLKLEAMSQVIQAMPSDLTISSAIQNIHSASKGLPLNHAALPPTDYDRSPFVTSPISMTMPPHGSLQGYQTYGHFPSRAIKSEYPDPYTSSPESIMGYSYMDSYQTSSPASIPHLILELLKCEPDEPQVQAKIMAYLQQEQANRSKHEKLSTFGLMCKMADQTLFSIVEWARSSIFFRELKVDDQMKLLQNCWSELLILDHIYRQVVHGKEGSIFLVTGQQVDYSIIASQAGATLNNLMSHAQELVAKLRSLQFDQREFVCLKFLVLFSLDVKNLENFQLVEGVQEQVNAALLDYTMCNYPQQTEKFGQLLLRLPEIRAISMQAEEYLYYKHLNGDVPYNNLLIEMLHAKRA
Sequence of Steroidogenic factor 1 (Q13285 whole entry): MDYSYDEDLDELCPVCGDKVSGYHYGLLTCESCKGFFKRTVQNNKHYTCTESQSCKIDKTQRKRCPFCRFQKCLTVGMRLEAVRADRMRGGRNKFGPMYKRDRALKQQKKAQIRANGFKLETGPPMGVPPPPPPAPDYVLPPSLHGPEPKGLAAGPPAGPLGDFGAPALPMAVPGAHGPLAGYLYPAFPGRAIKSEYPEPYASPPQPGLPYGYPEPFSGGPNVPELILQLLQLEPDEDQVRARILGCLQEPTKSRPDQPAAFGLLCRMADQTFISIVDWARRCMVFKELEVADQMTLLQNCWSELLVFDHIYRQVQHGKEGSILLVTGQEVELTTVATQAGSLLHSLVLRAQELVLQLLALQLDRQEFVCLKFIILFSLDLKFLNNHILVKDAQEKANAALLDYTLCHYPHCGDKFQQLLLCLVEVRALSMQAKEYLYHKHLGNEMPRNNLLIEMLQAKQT

COc1cccc(NC(=O)c2oc3ccccc3c2NC(=O)C2CC2)c1
inactive: IC50 (Steroidogenic factor 1) 16 µM | IC50 [1] 35.9 µM | IC50 [2] 35.9 µM

CCn1c(C)nc2cc(-c3nnc(-c4c(-c5ccccc5)noc4C)o3)ccc21
active: IC50 (Protein Wnt-3a) 2.59 µM | AC50 [3] 5.96 µM | AC50 (INS1) 5.72 µM | AC50 [4] 5.82 µM

O=C(c1cc2sccc2n1Cc1ccccc1)N1CCN(c2nc3ccccc3s2)CC1
active: IC50 [5] 0.735 µM | IC50 [6] 0.779 µM | AC50 [7] 2.92 µM | IC50 (Protein Wnt-3a) 2.68 µM | AC50 [3] 0.453 µM | AC50 (INS1) 3.56 µM | AC50 [4] 1.09 µM

N#C/C(=C\C=C\c1ccccc1[N+](=O)[O-])C(=O)NC1CCCCC1
inactive: EC50 (HEK293 [10]) > 59.7 µM | EC50 (HEK293 [13]) > 59.7 µM
active: AC50 [8] 7.8 µM | CC50 (Vero [9]) > 25 µM | IC50 (Vero [11]) 17 µM | AC50 [12] 5.33 µM | AC50 (A-375) 25.9 µM

CCOc1cc(CNc2ccc(N3CCCC3)cc2)cc(Cl)c1OC
active: IC50 (Genome polyprotein) 48.2 µM | IC50 [14] 8.91 µM | IC50 (Nonstructural protein 1) 20.7 µM | CC50 (Vero [16]) > 40 µM
2.43 µM (not active): IC50 [18]
inactive: IC50 [15] > 100 µM | IC50 [17] > 80 µM | IC50 [19] > 64 µM
